Experimental data published in the supplement of paper PMC10307832.

Assays:
Test in all cases: relative viability (nuclei count vs DMSO), 5 days (fraction); higher = more cells survive
[1] = tested on: EPLC-272H
Outline: (§1)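 Each reported value is a median over duplicate plates. It expresses relative viability: treated-well nuclei count divided by vehicle-well nuclei count. Lung cancer cell lines in 1536-well plates were dosed by pin tool a day after seeding, alone with one drug or with a fixed anchor-drug dose plus five library-drug doses (not always all listed) in √10 steps, and nuclei were counted after 5 days.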

[2] = tested on: NCI-H2405
Outline: as §1

[3] = tested on: NCI-H1975
Outline: as §1

[4] = tested on: LCLC-97TM1
Outline: as §1

[5] = tested on: NCI-H520
Outline: as §1

[6] = tested on: CAL-12T
Outline: as §1

[7] = tested on: NCI-H1563
Outline: as §1

[8] = tested on: NCI-H1792
Outline: as §1

[9] = tested on: NCI-H838
Outline: as §1

[10] = tested on: A-427
Outline: as §1

[11] = tested on: NCI-H1915
Outline: as §1

[12] = tested on: LC-2-ad
Outline: as §1

[13] = tested on: UMC-11
Outline: as §1

[14] = tested on: SW 1573
Outline: as §1

[15] = tested on: HCC-15
Outline: as §1

[16] = tested on: NCI-H2023
Outline: as §1

[17] = tested on: HCC-44
Outline: as §1

[18] = tested on: COR-L 105
Outline: as §1

[19] = tested on: NCI-H2347
Outline: as §1

[20] = tested on: NCI-H1734
Outline: as §1

Cc1cn(-c2cc(NC(=O)c3ccc(C)c(Nc4nccc(-c5cccnc5)n4)c3)cc(C(F)(F)F)c2)cn1 [Nilotinib] + CC(C)C[C@H](NC(=O)[C@H](Cc1ccccc1)NC(=O)c1cnccn1)B(O)O [Bortezomib] (partner 0.002 µM)
relative viability ([1]; first compound 0.001 µM): 1.06 | relative viability ([1]; first compound 0.003162 µM): 1.21 | relative viability ([1]; first compound 0.01 µM): 0.863 | relative viability ([1]; first compound 0.03162 µM): 0.72 | relative viability ([1]; first compound 0.1 µM): 0.429 | relative viability ([2]; first compound 0.001 µM): 0.995 | relative viability ([2]; first compound 0.01 µM): 1.07 | relative viability ([2]; first compound 0.03162 µM): 0.762 | relative viability ([2]; first compound 0.1 µM): 0.553 | relative viability ([3]; first compound 0.001 µM): 0.32 | relative viability ([3]; first compound 0.003162 µM): 0.315 | relative viability ([3]; first compound 0.01 µM): 0.268 | relative viability ([3]; first compound 0.03162 µM): 0.279 | relative viability ([3]; first compound 0.1 µM): 0.171 | relative viability ([4]; first compound 0.001 µM): 0.454 | relative viability ([4]; first compound 0.003162 µM): 0.158 | relative viability ([4]; first compound 0.01 µM): 0.946 | relative viability ([4]; first compound 0.03162 µM): 0.295 | relative viability ([4]; first compound 0.1 µM): 0.511 | relative viability ([5]; first compound 0.001 µM): 0.591 | relative viability ([5]; first compound 0.01 µM): 0.776 | relative viability ([5]; first compound 0.03162 µM): 0.526 | relative viability ([5]; first compound 0.1 µM): 0.34 | relative viability ([6]; first compound 0.001 µM): 0.968 | relative viability ([6]; first compound 0.01 µM): 0.919 | relative viability ([6]; first compound 0.03162 µM): 0.807 | relative viability ([6]; first compound 0.1 µM): 1.19 | relative viability ([7]; first compound 0.001 µM): 0.878 | relative viability ([7]; first compound 0.003162 µM): 0.84 | relative viability ([7]; first compound 0.01 µM): 0.79 | relative viability ([7]; first compound 0.03162 µM): 0.704 | relative viability ([7]; first compound 0.1 µM): 0.623 | relative viability ([8]; first compound 0.001 µM): 0.94 | relative viability ([8]; first compound 0.01 µM): 1.2 | relative viability ([8]; first compound 0.1 µM): 1.23 | relative viability ([9]; first compound 0.001 µM): 0.867 | relative viability ([9]; first compound 0.003162 µM): 0.731 | relative viability ([9]; first compound 0.01 µM): 0.976 | relative viability ([9]; first compound 0.03162 µM): 0.673 | relative viability ([9]; first compound 0.1 µM): 0.709 | relative viability ([10]; first compound 0.001 µM): 0.928 | relative viability ([10]; first compound 0.01 µM): 0.95 | relative viability ([10]; first compound 0.03162 µM): 1.02 | relative viability ([10]; first compound 0.1 µM): 0.536 | relative viability ([11]; first compound 0.001 µM): 0.932 | relative viability ([11]; first compound 0.003162 µM): 1.17 | relative viability ([11]; first compound 0.01 µM): 1.18 | relative viability ([11]; first compound 0.03162 µM): 0.823 | relative viability ([11]; first compound 0.1 µM): 0.85 | relative viability ([12]; first compound 0.001 µM): 0.914 | relative viability ([12]; first compound 0.003162 µM): 1.17 | relative viability ([12]; first compound 0.01 µM): 0.983 | relative viability ([12]; first compound 0.03162 µM): 0.992 | relative viability ([12]; first compound 0.1 µM): 0.527 | relative viability ([13]; first compound 0.001 µM): 0.65 | relative viability ([13]; first compound 0.003162 µM): 0.658 | relative viability ([13]; first compound 0.01 µM): 0.806 | relative viability ([13]; first compound 0.1 µM): 0.333 | relative viability ([14]; first compound 0.001 µM): 1.02 | relative viability ([14]; first compound 0.003162 µM): 1.4 | relative viability ([14]; first compound 0.01 µM): 1.54 | relative viability ([14]; first compound 0.03162 µM): 0.796 | relative viability ([14]; first compound 0.1 µM): 1.09 | relative viability ([15]; first compound 0.001 µM): 0.92 | relative viability ([15]; first compound 0.003162 µM): 1.41 | relative viability ([15]; first compound 0.01 µM): 1.33 | relative viability ([15]; first compound 0.03162 µM): 0.855 | relative viability ([15]; first compound 0.1 µM): 0.629 | relative viability ([16]; first compound 0.001 µM): 1 | relative viability ([16]; first compound 0.003162 µM): 0.691 | relative viability ([16]; first compound 0.01 µM): 1.16 | relative viability ([16]; first compound 0.03162 µM): 0.925 | relative viability ([16]; first compound 0.1 µM): 0.206 | relative viability ([17]; first compound 0.001 µM): 0.885 | relative viability ([17]; first compound 0.003162 µM): 0.968 | relative viability ([17]; first compound 0.01 µM): 0.853 | relative viability ([17]; first compound 0.03162 µM): 0.871 | relative viability ([17]; first compound 0.1 µM): 0.873 | relative viability ([18]; first compound 0.001 µM): 0.903 | relative viability ([18]; first compound 0.01 µM): 0.812 | relative viability ([18]; first compound 0.03162 µM): 0.601 | relative viability ([18]; first compound 0.1 µM): 0.333 | relative viability ([19]; first compound 0.001 µM): 0.8 | relative viability ([19]; first compound 0.003162 µM): 1.08 | relative viability ([19]; first compound 0.01 µM): 1.17 | relative viability ([19]; first compound 0.03162 µM): 0.702 | relative viability ([19]; first compound 0.1 µM): 0.865 | relative viability ([20]; first compound 0.001 µM): 0.877 | relative viability ([20]; first compound 0.003162 µM): 0.948 | relative viability ([20]; first compound 0.01 µM): 1.01 | relative viability ([20]; first compound 0.03162 µM): 0.558 | relative viability ([20]; first compound 0.1 µM): 0.6
